Experiment [1] has as its system Escherichia coli. The experiment is described as follows: Antibacterial activity against Escherichia coli after 24 hr by disk diffusion test. In kind it is functional. (In general: In agar diffusion tests the substance spreads into inoculated agar from a disc or well.)
The test system of experiment [2] is Aspergillus niger. The experiment is described as follows: Antifungal activity against Aspergillus niger after 48 hr by disk diffusion test. It is filed as functional.
Experiment [3] relates to Pseudomonas aeruginosa. The experiment is described as follows: Antibacterial activity against Pseudomonas aeruginosa after 24 hr by agar plate method. It is filed as functional.
In experiment [4] the test system is Candida albicans. The experiment is described as follows: Antifungal activity against Candida albicans after 48 hr by disk diffusion test. In kind it is functional.
Experiment [5] concerns Aspergillus niger. The experiment can be described thus: Antifungal activity against Aspergillus niger after 48 hr by agar plate method. In kind it is functional.
For experiment [6], the system named is Escherichia coli. The experiment can be described thus: Antibacterial activity against Escherichia coli after 24 hr by agar plate method. In kind it is functional.
The test system of experiment [7] is Staphylococcus aureus. The experiment is described as follows: Antibacterial activity against Staphylococcus aureus after 24 hr by agar plate method. It is filed as functional.
Experiment [8] has as its system Bacillus subtilis. The experiment is described as follows: Antibacterial activity against Bacillus subtilis after 24 hr by disk diffusion test. In kind it is functional.
The test system of experiment [9] is Candida albicans. The experiment can be described thus: Antifungal activity against Candida albicans after 48 hr by agar plate method. In kind it is functional.
The test system of experiment [10] is Pseudomonas aeruginosa. The experiment is described as follows: Antibacterial activity against Pseudomonas aeruginosa after 24 hr by disk diffusion test. It is filed as functional.
Experiment [11] relates to Bacillus subtilis. The experiment is described as follows: Antibacterial activity against Bacillus subtilis after 24 hr by agar plate method. It is filed as functional.
For experiment [12], the system named is Staphylococcus aureus. The experiment is described as follows: Antibacterial activity against Staphylococcus aureus after 24 hr by disk diffusion test. In kind it is functional.
The subject of experiment [13] is Pseudomonas aeruginosa. The experiment is described as follows: Antibacterial activity against Pseudomonas aeruginosa at 100 ug/disk after 24 hr by disk diffusion test. The note with it: read-out: IZ.
For experiment [14], the system named is Escherichia coli. The experiment can be described thus: Antibacterial activity against Escherichia coli at 100 ug/disk after 24 hr by disk diffusion test. The note with it: read-out: IZ.
Experiment [15] relates to Bacillus subtilis. The experiment is described as follows: Antibacterial activity against Bacillus subtilis at 100 ug/disk after 24 hr by disk diffusion test. The note with it: read-out: IZ.
Experiment [16] concerns Staphylococcus aureus. The experiment can be described thus: Antibacterial activity against Staphylococcus aureus at 100 ug/disc after 24 hr by disk diffusion test. Particulars: read-out: IZ.
For experiment [17], the system named is Aspergillus niger. The experiment is described as follows: Antifungal activity against Aspergillus niger at 100 ug/disk after 48 hr by disk diffusion test. It is filed as functional. Particulars: read-out: IZ.
Experiment [18] deals with Candida albicans. The experiment is described as follows: Antifungal activity against Candida albicans at 100 ug/disk after 48 hr by disk diffusion test. In kind it is functional. Particulars: read-out: IZ.

In brackets after ≈: the same amount, converted by molar mass.

As usually defined, the MIC is the least concentration at which growth counts as inhibited. Higher therefore signals a need for much substance.

Take `CN1CCN(c2nc(Nc3ccccc3)nc(Oc3cc(=O)oc4ccccc34)n2)CC1`: the “inhibition zone (IZ)” value was 16 mm with Escherichia coli [1]; 14 mm with Aspergillus niger [2]; 17 mm in the experiment with Candida albicans [4]; 20 mm with Bacillus subtilis [8]; 17 mm in the experiment with Pseudomonas aeruginosa [10]; 16 mm in the experiment on Staphylococcus aureus [12]. Further, the minimal inhibitory concentration (MIC) with Pseudomonas aeruginosa [3], against Aspergillus niger [5], against Escherichia coli [6], in the experiment on Staphylococcus aureus [7], against Candida albicans [9] and in the experiment with Bacillus subtilis [11] was 100 µg/mL (≈ 232 µM) throughout.

Turning to `CCN1CCN(c2nc(Nc3ccccc3)nc(Oc3cc(=O)oc4ccccc34)n2)CC1`, the “inhibition zone (IZ)” value with Escherichia coli [1] worked out at 15 mm; in the experiment with Aspergillus niger [2] it was 17 mm; in the experiment with Candida albicans [4] it was 19 mm; with Bacillus subtilis [8] it was 20 mm; in the experiment with Pseudomonas aeruginosa [10] it was 18 mm; with Staphylococcus aureus [12], 17 mm. Moreover, the minimum inhibitory concentration (MIC) in the experiment on Pseudomonas aeruginosa [3] worked out at 100 µg/mL (≈ 225 µM); in the experiment with Aspergillus niger [5], 100 µg/mL (≈ 225 µM); in the experiment with Escherichia coli [6] it was 100 µg/mL (≈ 225 µM); in the experiment on Staphylococcus aureus [7], 100 µg/mL (≈ 225 µM); in the experiment on Candida albicans [9], 100 µg/mL (≈ 225 µM); against Bacillus subtilis [11], 50 µg/mL (≈ 112 µM).

`O=c1cc(Oc2nc(Nc3ccccc3)nc(N3CCN(c4cccc(Cl)c4)CC3)n2)c2ccccc2o1`: the “inhibition zone (IZ)” value with Escherichia coli [1] is on record as 22 mm; with Aspergillus niger [2], 20 mm; with Candida albicans [4], 23 mm; with Bacillus subtilis [8], 21 mm; with Pseudomonas aeruginosa [10] it was 23 mm; in the experiment on Staphylococcus aureus [12] it was 21 mm. In addition, the MIC in the experiment with Pseudomonas aeruginosa [3] stood at 25 µg/mL (≈ 47.4 µM); with Aspergillus niger [5], 50 µg/mL (≈ 94.9 µM); with Escherichia coli [6], 25 µg/mL (≈ 47.4 µM); in the experiment with Staphylococcus aureus [7] it was 50 µg/mL (≈ 94.9 µM); in the experiment with Candida albicans [9] it was 12.5 µg/mL (≈ 23.7 µM); in the experiment on Bacillus subtilis [11], 25 µg/mL (≈ 47.4 µM).

Consider `O=c1cc(Oc2nc(Nc3ccccc3)nc(N3CCN(c4cccc(Cl)c4Cl)CC3)n2)c2ccccc2o1`, for which the “inhibition zone (IZ)” value in the experiment on Escherichia coli [1] is 21 mm; in the experiment with Aspergillus niger [2], 20 mm; with Candida albicans [4], 22 mm; with Bacillus subtilis [8] it was 23 mm; in the experiment on Pseudomonas aeruginosa [10], 23 mm; in the experiment on Staphylococcus aureus [12], 22 mm. Besides, the minimal inhibitory concentration (MIC) in the experiment with Pseudomonas aeruginosa [3] worked out at 12.5 µg/mL (≈ 22.3 µM); in the experiment with Aspergillus niger [5], 12.5 µg/mL (≈ 22.3 µM); in the experiment on Escherichia coli [6], 50 µg/mL (≈ 89.1 µM); with Staphylococcus aureus [7], 25 µg/mL (≈ 44.5 µM); against Candida albicans [9], 12.5 µg/mL (≈ 22.3 µM); against Bacillus subtilis [11], 12.5 µg/mL (≈ 22.3 µM).

In the case of `O=c1cc(Oc2nc(Nc3ccccc3)nc(N3CCCCC3)n2)c2ccccc2o1`, the “inhibition zone (IZ)” value with Escherichia coli [1] turned out to be 22 mm; in the experiment with Aspergillus niger [2] it was 21 mm; in the experiment on Candida albicans [4], 20 mm; in the experiment on Bacillus subtilis [8], 20 mm; with Pseudomonas aeruginosa [10], 16 mm; in the experiment with Staphylococcus aureus [12] it was 19 mm. Also, the MIC against Pseudomonas aeruginosa [3] was 100 µg/mL (≈ 241 µM); in the experiment on Aspergillus niger [5], 12.5 µg/mL (≈ 30.1 µM); against Escherichia coli [6] it was 25 µg/mL (≈ 60.2 µM); with Staphylococcus aureus [7] it was 100 µg/mL (≈ 241 µM); in the experiment on Candida albicans [9] it was 100 µg/mL (≈ 241 µM); in the experiment on Bacillus subtilis [11], 50 µg/mL (≈ 120 µM).

`O=c1cc(Oc2nc(Nc3ccccc3)nc(N3CCOCC3)n2)c2ccccc2o1`: the “inhibition zone (IZ)” value stood at 22 mm in the experiment with Escherichia coli [1]; 21 mm in the experiment with Aspergillus niger [2]; 19 mm in the experiment with Candida albicans [4]; 16 mm in the experiment on Bacillus subtilis [8]; 17 mm in the experiment with Pseudomonas aeruginosa [10]; 19 mm in the experiment on Staphylococcus aureus [12]. Besides, the MIC came to 100 µg/mL (≈ 240 µM) against Pseudomonas aeruginosa [3]; 6.25 µg/mL (≈ 15 µM) with Aspergillus niger [5]; 25 µg/mL (≈ 59.9 µM) against Escherichia coli [6]; 100 µg/mL (≈ 240 µM) against Staphylococcus aureus [7]; 100 µg/mL (≈ 240 µM) against Candida albicans [9]; 100 µg/mL (≈ 240 µM) in the experiment with Bacillus subtilis [11].

In the case of `O=C(O)c1cn(C2CC2)c2cc(N3CCNCC3)c(F)cc2c1=O` [CIPROFLOXACIN], the zone of inhibition at 100 µg/disc with Pseudomonas aeruginosa [13] came out at 33 mm; with Escherichia coli [14], 32 mm; in the experiment with Bacillus subtilis [15], 29 mm; in the experiment with Staphylococcus aureus [16] it was 29 mm. Further, the MIC against Pseudomonas aeruginosa [3], in the experiment with Escherichia coli [6], against Staphylococcus aureus [7] and against Bacillus subtilis [11] was 3.12 µg/mL (≈ 9.43 µM) in each case.

Regarding `CC(=O)N1CCN(c2ccc(OCC3COC(Cn4ccnc4)(c4ccc(Cl)cc4Cl)O3)cc2)CC1` (centres undefined) [KETOCONAZOLE], the zone of inhibition at 100 µg/disc came to 30 mm in the experiment on Aspergillus niger [17] and 33 mm with Candida albicans [18]. Besides, the MIC amounted to 6.25 µg/mL (≈ 11.8 µM) against Aspergillus niger [5] and 3.12 µg/mL (≈ 5.88 µM) in the experiment with Candida albicans [9].

Source of the values: ChEMBL document CHEMBL3045112, “In vitro antimicrobial assessment of coumarin-based s-triazinyl piperazines” (2012).
